Experimental findings from the supplement of paper PMC10307832 are described below.

Experiment in all cases: relative viability (nuclei count vs DMSO), 5 days (fraction); higher = more cells survive
Compound in the experiment “Carfilzomib + OSI-027”: CC(C)C[C@H](NC(=O)[C@H](CCc1ccccc1)NC(=O)CN1CCOCC1)C(=O)N[C@@H](Cc1ccccc1)C(=O)N[C@@H](CC(C)C)C(=O)[C@@]1(C)CO1 [Carfilzomib] + COc1cccc2cc(-c3nc([C@H]4CC[C@H](C(=O)O)CC4)n4ncnc(N)c34)[nH]c12 [OSI-027] (partner 0.5 µM)
Summed up:
(§1)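 Dosing by pin tool came one day after lung cancer cell lines were seeded in 1536-well plates, using either one drug or a fixed anchor-drug dose plus five library-drug doses (not always all listed) in √10 steps. After 5 days, nuclei were counted on 4× images. Relative viability is treated-well nuclei count divided by vehicle-well nuclei count, and values are medians of duplicate plates.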

Compound in the experiment “Carfilzomib + AZD7762”: CC(C)C[C@H](NC(=O)[C@H](CCc1ccccc1)NC(=O)CN1CCOCC1)C(=O)N[C@@H](Cc1ccccc1)C(=O)N[C@@H](CC(C)C)C(=O)[C@@]1(C)CO1 [Carfilzomib] + NC(=O)Nc1cc(-c2cccc(F)c2)sc1C(=O)N[C@H]1CCCNC1 [AZD7762] (partner 0.2 µM)
Summed up:
as §1

Compound in the experiment “Crizotinib + Foretinib”: C[C@@H](Oc1cc(-c2cnn(C3CCNCC3)c2)cnc1N)c1c(Cl)ccc(F)c1Cl [Crizotinib] + COc1cc2c(Oc3ccc(NC(=O)C4(C(=O)Nc5ccc(F)cc5)CC4)cc3F)ccnc2cc1OCCCN1CCOCC1 [Foretinib] (partner 0.25 µM)
Summed up:
as §1

Compound in the experiment “Crizotinib + Dasatinib”: C[C@@H](Oc1cc(-c2cnn(C3CCNCC3)c2)cnc1N)c1c(Cl)ccc(F)c1Cl [Crizotinib] + Cc1nc(Nc2ncc(C(=O)Nc3c(C)cccc3Cl)s2)cc(N2CCN(CCO)CC2)n1 [Dasatinib] (partner 0.075 µM)
Summed up: as §1

Compound in the experiment “Olaparib + OSI-027”: O=C(c1cc(Cc2n[nH]c(=O)c3ccccc23)ccc1F)N1CCN(C(=O)C2CC2)CC1 [Olaparib] + COc1cccc2cc(-c3nc([C@H]4CC[C@H](C(=O)O)CC4)n4ncnc(N)c34)[nH]c12 [OSI-027] (partner 0.5 µM)
Summed up:
as §1

Consider NCI-H1793, for which the relative viability in the experiment with Carfilzomib + OSI-027 (first compound 0.003162 µM) was determined as 0.323; with Carfilzomib + OSI-027 (first compound 0.01 µM), 0.369; with Carfilzomib + OSI-027 (first compound 0.03162 µM), 0.269; with Carfilzomib + OSI-027 (first compound 0.1 µM) it was 0.133; with Carfilzomib + AZD7762 (first compound 0.001 µM), 0.481; with Carfilzomib + AZD7762 (first compound 0.003162 µM) it was 0.883. Also, the relative viability amounted to 0.599 with Carfilzomib + AZD7762 (first compound 0.01 µM); 0.757 in the experiment with Carfilzomib + AZD7762 (first compound 0.03162 µM); 0.506 in the experiment with Carfilzomib + AZD7762 (first compound 0.1 µM); 0.879 with Crizotinib + Foretinib (first compound 0.03162 µM); 0.604 with Crizotinib + Foretinib (first compound 0.1 µM); 0.705 with Crizotinib + Foretinib (first compound 1 µM). For the same cell line, the relative viability came to 0.401 with Crizotinib + Dasatinib (first compound 0.03162 µM); 0.382 in the experiment with Crizotinib + Dasatinib (first compound 0.1 µM); 0.369 in the experiment with Crizotinib + Dasatinib (first compound 1 µM); 0.279 in the experiment with Olaparib + OSI-027 (first compound 0.08 µM); 0.295 in the experiment with Olaparib + OSI-027 (first compound 0.253 µM); 0.29 in the experiment with Olaparib + OSI-027 (first compound 2.53 µM). Besides, the relative viability with Olaparib + OSI-027 (first compound 8 µM) was 0.243.
